The subject of the assay is BDF1 mice, P388 leukemia ip, median survival T/C. Briefly: NCI In Vivo Anticancer Drug Screen. Data for tumor model P388 Leukemia (intraperitoneal) in B6D2F1 (BDF1) mice. Particulars: endpoint: median survival time, higher = longer survival. The gist of the method: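 In tumour-bearing mice, survival after compound treatment is set against the vehicle group and given as a quotient.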

The mark [1] stands for this setting: dose: 100.0 mg/kg/injection, schedule: Q01DX009 (ip), vehicle: Klucel (hydroxypropylcellulose) (HPC).
Where [2] appears, read: dose: 100.0 mg/kg/injection, schedule: Q04DX003 (ip), vehicle: saline with Tween-80.
Setting [3] is: dose: 200.0 mg/kg/injection, schedule: Q04DX003 (ip), vehicle: saline with Tween-80.
[4] abbreviates: dose: 400.0 mg/kg/injection, schedule: Q04DX003 (ip), vehicle: saline with Tween-80.
The mark [5] stands for this setting: dose: 100.0 mg/kg/injection, schedule: Q04DX003 (ip), vehicle: Klucel (hydroxypropylcellulose) (HPC).
Where [6] appears, read: dose: 200.0 mg/kg/injection, schedule: Q04DX003 (ip), vehicle: Klucel (hydroxypropylcellulose) (HPC).
Where [7] appears, read: dose: 400.0 mg/kg/injection, schedule: Q04DX003 (ip), vehicle: Klucel (hydroxypropylcellulose) (HPC).
Where [8] appears, read: dose: 50.0 mg/kg/injection, schedule: Q01DX009 (ip), vehicle: water.
[9] abbreviates: dose: 100.0 mg/kg/injection, schedule: Q01DX009 (ip), vehicle: water.
Setting [10] is: dose: 200.0 mg/kg/injection, schedule: Q01DX009 (ip), vehicle: water.
The mark [11] stands for this setting: dose: 100.0 mg/kg/injection, schedule: Q01DX009 (ip), vehicle: saline with Tween-80.
Where [12] appears, read: dose: 200.0 mg/kg/injection, schedule: Q01DX009 (ip), vehicle: saline with Tween-80.
Setting [13] is: dose: 100.0 mg/kg/injection, schedule: Q01DX001 (ip), vehicle: saline with Tween-80.
The mark [14] stands for this setting: dose: 200.0 mg/kg/injection, schedule: Q01DX001 (ip), vehicle: saline with Tween-80.

Each structure is given as a SMILES string. Values joined by “and” are separate entries in the source; they are usually repeats but may differ in a detail not shown here. Equal values may be shown once. Inconclusive results and toxic doses are left out. Residues, ends and D or L forms follow the SMILES beside them. *: point of attachment. Cbz = O=C(OCc1ccccc1)*

For `CCn1cnc2c(SC)nc(N)nc21`, the T/C (dose: 25.0 mg/kg/injection, schedule: Q01DX009 (ip), vehicle: Klucel (hydroxypropylcellulose) (HPC)) is 110 % of control; the T/C (dose: 50.0 mg/kg/injection, schedule: Q01DX009 (ip), vehicle: Klucel (hydroxypropylcellulose) (HPC)) was 105 % of control; the T/C (dose: 50.0 mg/kg/injection, schedule: Q04DX003 (ip), vehicle: alcohol) was 100 % of control; the T/C (dose: 75.0 mg/kg/injection, schedule: Q04DX003 (ip), vehicle: Klucel (hydroxypropylcellulose) (HPC)) was 104 % of control; the T/C under setting [1] is 100 % of control; the T/C (dose: 100.0 mg/kg/injection, schedule: Q04DX003 (ip), vehicle: alcohol) was 100 % of control. The T/C was 100 % of control (dose: 150.0 mg/kg/injection, schedule: Q04DX003 (ip), vehicle: Klucel (hydroxypropylcellulose) (HPC)); 100 % of control (dose: 200.0 mg/kg/injection, schedule: Q04DX003 (ip), vehicle: alcohol); 109 % of control (dose: 300.0 mg/kg/injection, schedule: Q04DX003 (ip), vehicle: Klucel (hydroxypropylcellulose) (HPC)).
For the compound `CC(C)C(NC(=O)C1CCCN1C(=O)OCc1ccccc1)C(=O)O` (stereo not drawn) (Cbz-Pro-Val-OH; configuration not given here), the T/C runs as follows: under setting [2], 104 % of control; under setting [3], 100 % of control; under setting [4], 100 % of control.
In the case of `C=CCc1ccc(OCCOC(=O)Nc2cccc(SC)c2)c(OC)c1`, the T/C was 90 % of control (dose: 12.5 mg/kg/injection, schedule: Q01DX009 (ip), vehicle: DMSO); 107 % of control (dose: 25.0 mg/kg/injection, schedule: Q01DX009 (ip), vehicle: DMSO); 93 % of control (dose: 50.0 mg/kg/injection, schedule: Q01DX009 (ip), vehicle: DMSO).
Take `CCOC(=O)C(C)(C)CCl`: the T/C was 90 % of control under setting [5], 90 % of control under setting [6] and 100 % of control under setting [7].
As to `CC(=O)Nc1ccc(SSSc2ccc(NC(C)=O)cc2)cc1`, the T/C is 100 % of control (dose: 12.5 mg/kg/injection, schedule: Q01DX009 (ip), vehicle: water); 96 % of control (dose: 25.0 mg/kg/injection, schedule: Q01DX009 (ip), vehicle: water); 101 % of control under setting [8]; 105 % of control under setting [9]; 111 % of control and 118 % of control under setting [10].
Take `CC1C(=O)OCC2=CCN3CCC(OC(=O)C(C)C1(C)O)C23` (stereo unspecified): the T/C by setting is: (dose: 10.0 mg/kg/injection, schedule: Q01DX010 (ip), vehicle: saline) 100 % of control; (dose: 20.0 mg/kg/injection, schedule: Q01DX010 (ip), vehicle: saline) 105 % of control; (dose: 25.0 mg/kg/injection, schedule: Q01DX010 (ip), vehicle: carboxymethylcellulose (CMC)) 122 % of control; (dose: 40.0 mg/kg/injection, schedule: Q01DX010 (ip), vehicle: saline) 150 % of control; (dose: 50.0 mg/kg/injection, schedule: Q01DX010 (ip), vehicle: carboxymethylcellulose (CMC)) 111 % of control; (dose: 100.0 mg/kg/injection, schedule: Q01DX010 (ip), vehicle: carboxymethylcellulose (CMC)) 88 % of control.
For the compound `O=C1NC(=O)C(c2ccccc2)(c2ccc(Cl)cc2Cl)N1` (stereo unspecified), the T/C by setting is: under setting [11], 95 % of control; under setting [2], 100 % of control; under setting [12], 91 % of control; under setting [3], 90 % of control; under setting [4], 100 % of control.
`CC(C)(C)N=Cc1ccccc1O.CC(C)(C)N=Cc1ccccc1O.[Cu]`: the T/C was 100 % of control (dose: 6.25 mg/kg/injection, schedule: Q04DX003 (ip), vehicle: saline); 90 % of control (dose: 12.5 mg/kg/injection, schedule: Q04DX003 (ip), vehicle: saline); 95 % of control (dose: 25.0 mg/kg/injection, schedule: Q04DX003 (ip), vehicle: saline).
Regarding `CCCCCCCCC(=O)c1c(OC)oc(C=O)cc1=O`, the T/C (dose: 2.34 mg/kg/injection, schedule: Q01DX009 (ip), vehicle: Klucel (hydroxypropylcellulose) (HPC)) is 96 % of control; the T/C (dose: 4.69 mg/kg/injection, schedule: Q01DX009 (ip), vehicle: Klucel (hydroxypropylcellulose) (HPC)) is 112 % of control and 118 % of control; the T/C (dose: 9.38 mg/kg/injection, schedule: Q01DX009 (ip), vehicle: Klucel (hydroxypropylcellulose) (HPC)) is 104 % of control and 108 % of control; the T/C (dose: 18.7 mg/kg/injection, schedule: Q01DX009 (ip), vehicle: Klucel (hydroxypropylcellulose) (HPC)) is 105 % of control; the T/C (dose: 18.75 mg/kg/injection, schedule: Q01DX009 (ip), vehicle: Klucel (hydroxypropylcellulose) (HPC)) was 96 % of control; the T/C (dose: 37.5 mg/kg/injection, schedule: Q01DX009 (ip), vehicle: Klucel (hydroxypropylcellulose) (HPC)) is 93 % of control and 114 % of control and 121 % of control.
On to `c1ccc(-c2nnc3oc(-c4ccco4)nn23)cc1`, for which the T/C reads like this: under setting [11], 91 % of control; under setting [2], 90 % of control; under setting [12], 108 % of control; under setting [3], 100 % of control; (dose: 400.0 mg/kg/injection, schedule: Q01DX009 (ip), vehicle: saline with Tween-80) 100 % of control; under setting [4], 95 % of control.
For `C=CCOc1ccc([N+](=O)[O-])cc1[N+](=O)[O-]`, the T/C is 100 % of control under setting [13]; 105 % of control under setting [14]; 100 % of control (dose: 400.0 mg/kg/injection, schedule: Q01DX001 (ip), vehicle: saline with Tween-80).
In the case of `c1cc2n(n1)CCN2`, the T/C is 105 % of control under setting [8]; 90 % of control (dose: 80.0 mg/kg/injection, schedule: Q01DX009 (ip), vehicle: saline); 90 % of control under setting [9]; 120 % of control under setting [2]; 103 % of control (dose: 100.0 mg/kg/injection, schedule: Q04DX003 (ip), vehicle: water); 107 % of control (dose: 120.0 mg/kg/injection, schedule: Q01DX009 (ip), vehicle: saline). Besides, the T/C (dose: 180.0 mg/kg/injection, schedule: Q01DX009 (ip), vehicle: saline) was 112 % of control; the T/C under setting [10] is 90 % of control; the T/C (dose: 200.0 mg/kg/injection, schedule: Q04DX003 (ip), vehicle: water) was 96 % of control; the T/C (dose: 400.0 mg/kg/injection, schedule: Q04DX003 (ip), vehicle: water) is 121 % of control.
As to `Cc1c(Cl)c(Cl)c(NS(=O)(=O)c2ccccc2)c(NS(=O)(=O)c2ccccc2)c1Cl`, the T/C under setting [1] is 100 % of control; the T/C under setting [5] was 90 % of control; the T/C (dose: 200.0 mg/kg/injection, schedule: Q01DX009 (ip), vehicle: Klucel (hydroxypropylcellulose) (HPC)) is 90 % of control; the T/C under setting [6] is 104 % of control; the T/C (dose: 400.0 mg/kg/injection, schedule: Q01DX009 (ip), vehicle: Klucel (hydroxypropylcellulose) (HPC)) was 95 % of control; the T/C under setting [7] is 100 % of control.
On to `CC1(C)N=C(N)N=C(N)N1c1cccc(OCCOc2cccc(NC(=O)CBr)c2)c1`, for which the T/C (dose: 5.0 mg/kg/injection, schedule: Q01DX009 (ip), vehicle: saline) was 90 % of control and 100 % of control; the T/C (dose: 5.0 mg/kg/injection, schedule: Q04DX003 (ip), vehicle: saline) was 100 % of control; the T/C (dose: 10.0 mg/kg/injection, schedule: Q01DX009 (ip), vehicle: saline) is 95 % of control and 100 % of control; the T/C (dose: 10.0 mg/kg/injection, schedule: Q04DX003 (ip), vehicle: saline) was 100 % of control; the T/C (dose: 13.0 mg/kg/injection, schedule: Q01DX009 (ip), vehicle: saline) is 104 % of control and 110 % of control; the T/C (dose: 20.0 mg/kg/injection, schedule: Q04DX003 (ip), vehicle: saline) was 100 % of control. Also, for the setting “dose: 45.0 mg/kg/injection, schedule: Q01DX009 (ip), vehicle: saline”, the T/C is 100 % of control.
For `c1ccc(N2CCCCCN2c2ccccc2)cc1`, the T/C reads like this: (dose: 50.0 mg/kg/injection, schedule: Q01DX001 (ip), vehicle: saline with Tween-80) 92 % of control; under setting [13], 90 % of control; under setting [14], 90 % of control.
Turning to `CC(=O)c1cc(C)ccc1Sc1ccc(C)cc1`, the T/C was 104 % of control (dose: 50.0 mg/kg/injection, schedule: Q01DX009 (ip), vehicle: saline with Tween-80); 101 % of control under setting [11]; 95 % of control under setting [12].

The record behind these values is PubChem BioAssay AID328 (DTP/NCI, 2004).
